Test results as given in patent US20220089541A1, “Compounds for the Treatment of Kinase-Dependent Disorders” (Exelixis, Inc., priority 2019, published 2022).

Columns and labels:
[1] = Microsomal assay, rat liver microsome stability; conditions: liver microsomes, pH 7.4
Method: (§1) Liver microsomes tissue fractions were used for in vitro assessment of metabolic stability of compounds by cytochrome P450 (CYP450) (for example, CYP3A4, CYP2C9) mediated phase I oxidation, and metabolism through other pathways. Human, mouse, rat, and dog liver microsomes tissue fractions were obtained from Corning Gentest and BioreclamationIVT.
(§2) The assay was carried out in 96-well microtiter plates. Compounds were incubated (N=l) at 37° C. in the presence of liver microsomes. Reaction mixtures (25 μL) contained a final concentration of 1 μM test compound, 0.5 mg/mL liver microsomes (LM) protein, and 1 mM NADPH in 100 mM potassium phosphate, pH 7.4 buffer with 3.3 mM MgCl2. The extent of metabolism was calculated as the disappearance of the test compound, compared to the 0-min control reaction incubations. Verapamil was included as a positive control to verily assay performance.
(§3) At each of the four time points, 150 μL of quench solution (100% acetonitrile with 0.1% formic acid) with internal standard (bucetin for positive ESI mode) was transferred to each well. Plates were sealed and centrifuged at 10° C. for 15 minutes at 4000 rpm. The supernatant was transferred to fresh plates for LC/MS/MS analysis.
(§4) All samples were analyzed on LC/MS/MS using an AB Sciex API 4000 instrument, coupled to a Shimadzu LC-20AD LC Pump system. Analytical samples were separated using a Waters Atlantis T3 dC18 reverse phase HPLC column (20 mm×2.1 mm) at a flow rate of 0.5 mL/min. The mobile phase consisted of 0.1% formic acid in water (solvent A) and 0.1% formic acid in 100% acetonitrile (solvent B).

Met = target: T1, Met (Homo sapiens, UniProt P08581); assay: Met autophosphorylation ELISA in PC-3 cells; format: cell-based; conditions: PC-3 prostate cancer cells, HGF-stimulated, phospho-Met ELISA, 1 h compound incubation; read-out: c-Met IC50
T1 construct: host or cells: PC-3 prostate cancer cells
Method: Example B: Met Autophosphorylation ELISA in PC-3 Cells
PC-3 prostate cancer cells (ATCC #CRL-1435) were seeded at 4×10^4 cells/well onto 24-well plates (Greiner #662165), in DMEM (Thermo Fisher #11995-040) containing 10% FBS (Thermo Fisher #26140-079), 1% MEM NEAA (Thermo Fisher #11140-050), 1% GlutaMax (Thermo Fisher #35050-061), and 1% Penicillin Streptomycin (Thermo Fisher #15140-122). PC-3 cells were incubated at 37° C., 5% CO2 for 24 h and then starved for 3 h in serum-free medium. Test compounds were serially diluted to produce an 8-point dose curve in fresh serum-free medium to a final concentration of 0.3% DMSO (vehicle) and added to the cells and incubated for 1 h. Cells were then stimulated with 100 ng/mL recombinant human HGF (R&D Systems #294-HG-250) for 10 min, washed with cold PBS, and immediately lysed with 130 μL of cold IX lysis buffer [20 mM Tris, 137 mM sodium chloride, 2 mM EDTA, 10% glycerol, 1% NP-40 alternative, 1 mM activated sodium orthovanadate, 1 mM PefaBloc SC (Sigma-Aldrich #11429868001), protease/phosphatase inhibitor tablet (Thermo Fisher #A32959)]. Lysates were clarified by centrifugation and 100 μL/well added into the PathScan phospho-Met (panTyr) Sandwich ELISA (Cell Signaling Technology #7333). Assay was performed according to manufacturer's instructions. Positive control wells (100% activity) contained HGF-stimulated, DMSO-treated cell lysates. Negative control wells (0% activity) contained HGF-stimulated, reference inhibitor-treated cell lysates. IC50 values were calculated by nonlinear regression analysis using a 4-parameter logistic curve fit in ActivityBase XE (IDBS).

[2] = Microsomal assay, human liver microsome stability; conditions: liver microsomes, pH 7.4
Method: as §1, §2, §3, §4

AXL = target: T2, AXL (Homo sapiens, UniProt P30530); assay: AXL autophosphorylation ELISA in A-172 cells; format: cell-based; conditions: A-172 glioblastoma cells, Gas6-stimulated, phospho-AXL ELISA, 1 h compound incubation
T2 construct: host or cells: A-172 glioblastoma cells
T2 sequence (P30530 26-894): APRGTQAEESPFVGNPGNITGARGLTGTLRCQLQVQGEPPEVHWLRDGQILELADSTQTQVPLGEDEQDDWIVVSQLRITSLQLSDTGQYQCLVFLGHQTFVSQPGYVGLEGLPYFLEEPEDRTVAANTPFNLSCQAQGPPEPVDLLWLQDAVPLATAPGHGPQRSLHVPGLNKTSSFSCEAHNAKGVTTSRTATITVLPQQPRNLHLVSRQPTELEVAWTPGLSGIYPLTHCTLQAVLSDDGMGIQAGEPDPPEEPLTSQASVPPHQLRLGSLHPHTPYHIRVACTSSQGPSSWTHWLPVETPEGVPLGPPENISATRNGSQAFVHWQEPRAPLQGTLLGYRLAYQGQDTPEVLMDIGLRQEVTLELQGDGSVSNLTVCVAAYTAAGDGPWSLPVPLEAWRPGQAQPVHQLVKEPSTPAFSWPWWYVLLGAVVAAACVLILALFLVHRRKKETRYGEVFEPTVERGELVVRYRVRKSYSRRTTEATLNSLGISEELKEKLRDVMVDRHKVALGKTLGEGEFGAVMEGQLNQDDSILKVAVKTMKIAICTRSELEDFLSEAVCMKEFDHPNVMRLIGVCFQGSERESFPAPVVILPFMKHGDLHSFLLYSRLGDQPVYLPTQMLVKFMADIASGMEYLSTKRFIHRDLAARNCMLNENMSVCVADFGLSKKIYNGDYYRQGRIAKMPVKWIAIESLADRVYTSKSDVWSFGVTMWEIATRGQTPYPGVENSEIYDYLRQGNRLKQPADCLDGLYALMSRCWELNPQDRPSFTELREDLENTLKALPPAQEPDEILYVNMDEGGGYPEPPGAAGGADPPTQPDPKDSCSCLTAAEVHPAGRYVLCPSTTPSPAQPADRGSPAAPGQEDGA
Method: Example A: AXL Autophosphorylation ELISA in A-172 Cells
A-172 glioblastoma cells (ATCC #CRL-1620) were seeded at 2.5×10^5 cells/well onto 24-well plates (Greiner #662165), in DMEM (Thermo Fisher #11995-040) containing 10% FBS (Thermo Fisher #26140-079), 1% MEM NEAA (Thermo Fisher #11140-050), 1% GlutaMax (Thermo Fisher #35050-061), and 1% Penicillin Streptomycin (Thermo Fisher #15140-122). A-172 cells were incubated at 37° C., 5% CO2 for 24 h and then starved for 24 h in serum-free medium. Test compounds were serially diluted to produce an 8-point dose curve in fresh serum-free medium to a final concentration of 0.3% DMSO (vehicle) and added to the cells and incubated for 1 h. Cells were then stimulated with 1 μg/mL recombinant human Gas6 (R&D Systems #885-GSB-500) for 15 min, washed with cold PBS, and immediately lysed with 150 μL of cold IX lysis buffer [20 mM Tris, 137 mM sodium chloride, 2 mM EDTA, 10% glycerol, 1% NP-40 alternative, 1 mM activated sodium orthovanadate, 1 mM PefaBloc SC (Sigma-Aldrich #11429868001), protease/phosphatase inhibitor tablet (Thermo Fisher #A32959)]. Lysates were collected and 100 μL/well added into the human phospho-AXL DuoSet IC ELISA (R&D Systems #DYC2228-2). Assay was performed according to manufacturer's instructions and sample phospho-AXL concentrations were extrapolated using human phospho-AXL control (R&D Systems #841645) as a standard. Positive control wells (100% activity) contained Gas6-stimulated, DMSO-treated cell lysates. Negative control wells (0% activity) contained Gas6-stimulated, reference inhibitor-treated cell lysates. IC50 values were calculated by nonlinear regression analysis using a 4-parameter logistic curve fit in ActivityBase XE (IDBS).

[3] = Microsomal assay, mouse liver microsome stability; conditions: liver microsomes, pH 7.4
Method: as §1, §2, §3, §4

T1 sequence (P08581 25-1390): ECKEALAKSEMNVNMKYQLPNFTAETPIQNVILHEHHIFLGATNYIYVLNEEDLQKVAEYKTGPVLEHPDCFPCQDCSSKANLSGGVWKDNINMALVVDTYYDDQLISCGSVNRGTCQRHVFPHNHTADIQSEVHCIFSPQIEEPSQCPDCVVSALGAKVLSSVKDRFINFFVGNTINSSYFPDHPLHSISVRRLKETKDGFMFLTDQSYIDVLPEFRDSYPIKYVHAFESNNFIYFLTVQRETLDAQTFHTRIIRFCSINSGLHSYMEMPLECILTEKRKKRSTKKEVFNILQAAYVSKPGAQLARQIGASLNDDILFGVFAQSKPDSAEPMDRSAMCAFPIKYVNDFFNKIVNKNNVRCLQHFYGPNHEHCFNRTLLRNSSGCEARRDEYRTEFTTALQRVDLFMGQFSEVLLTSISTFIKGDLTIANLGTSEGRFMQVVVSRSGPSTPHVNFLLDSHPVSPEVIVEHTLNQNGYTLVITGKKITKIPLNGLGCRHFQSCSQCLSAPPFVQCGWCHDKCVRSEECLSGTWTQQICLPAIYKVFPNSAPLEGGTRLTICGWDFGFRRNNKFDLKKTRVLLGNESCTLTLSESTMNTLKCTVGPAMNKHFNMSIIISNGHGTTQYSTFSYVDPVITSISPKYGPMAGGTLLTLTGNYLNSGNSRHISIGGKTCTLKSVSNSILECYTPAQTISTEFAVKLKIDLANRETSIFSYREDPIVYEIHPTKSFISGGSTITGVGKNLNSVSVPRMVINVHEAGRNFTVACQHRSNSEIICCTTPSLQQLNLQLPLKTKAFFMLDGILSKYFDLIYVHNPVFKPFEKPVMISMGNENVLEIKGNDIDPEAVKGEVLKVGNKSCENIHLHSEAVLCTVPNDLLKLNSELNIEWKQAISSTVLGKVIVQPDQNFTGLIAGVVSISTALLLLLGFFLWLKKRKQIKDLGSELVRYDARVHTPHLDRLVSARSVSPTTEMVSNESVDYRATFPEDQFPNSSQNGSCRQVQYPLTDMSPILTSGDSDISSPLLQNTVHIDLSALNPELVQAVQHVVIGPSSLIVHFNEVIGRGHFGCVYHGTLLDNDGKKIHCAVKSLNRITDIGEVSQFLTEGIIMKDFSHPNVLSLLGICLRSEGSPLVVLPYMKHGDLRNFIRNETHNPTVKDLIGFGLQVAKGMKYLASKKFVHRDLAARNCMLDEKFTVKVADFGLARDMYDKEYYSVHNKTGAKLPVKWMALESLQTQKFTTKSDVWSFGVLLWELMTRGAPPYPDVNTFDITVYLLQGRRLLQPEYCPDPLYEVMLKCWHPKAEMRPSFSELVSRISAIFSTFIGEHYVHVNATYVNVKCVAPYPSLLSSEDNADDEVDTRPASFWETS

Compound | half-life at 1 μM [1] [min] | IC50 (Met) [nM] | half-life at 1 μM [2] [min] | IC50 (AXL) [nM] | half-life at 1 μM [3] [min]
COc1cc2nccc(Oc3ccc(NC(=O)C4(C(=O)N(C)c5ccc(F)cc5)CC4)cc3)c2cc1OC [Compound 9, 1-N-[4-(6,7-Dimethoxyquinolin-4-yl)oxyphenyl]-1-N′-(4-fluorophenyl)-1-N′-methylcyclopropane-1,1-dicarboxamide] | 1.4 | > 300 | 1.4 | > 300 | 3.1
COc1cc2nccc(Oc3ccc(NC(=O)C4(C(=O)N(C)c5ccc(F)cc5)CC4)cc3F)c2cc1OC [Compound 10, N-(4-((6,7-Dimethoxyquinolin-4-yl)oxy)-3-fluorophenyl)-N-(4-fluorophenyl)-N-methylcyclopropane-1,1-dicarboxamide] | 1.3 | > 300 | 1.3 | > 300 | 4.1
CNC(=O)c1cc2c(Oc3ncc(NC(=O)C4(C(=O)N(C)c5ccc(F)cc5)CC4)cc3F)ccnc2cc1OC [Compound 34, 1-N-[5-Fluoro-6-[7-methoxy-6-(methylcarbamoyl)quinolin-4-yl]oxypyridin-3-yl]-1-N′-(4-fluorophenyl)-1-N′-methylcyclopropane-1,1-dicarboxamide] | 1.3 | > 300 | 1.3 | > 300 | 2.6
COc1cc2nccc(Oc3ncc(NC(=O)C4(C(=O)N(C)c5ccc(F)cc5)CC4)cc3F)c2cc1C(N)=O [Compound 35, 1-N-[6-(6-Carbamoyl-7-methoxyquinolin-4-yl)oxy-5-fluoropyridin-3-yl]-1-N′-(4-fluorophenyl)-1-N′-methylcyclopropane-1,1-dicarboxamide] | 1.2 | > 300 | 1.3 | > 300 | 1.9
COc1cc2nccc(Oc3ccc(N(C)C(=O)C4(C(=O)Nc5ccc(F)cc5)CC4)cc3F)c2cc1OC [Compound 51, 1-N′-[4-(6,7-Dimethoxyquinolin-4-yl)oxy-3-fluorophenyl]-1-N-(4-fluorophenyl)-1-N′-methylcyclopropane-1,1-dicarboxamide] | 14.3 | > 300 | 29.7 | > 300 | 9.6
